Tests used:
[1] = biological target: T1, HiBiT-BRM (Homo sapiens, UniProt P51531); assay: HiBiT-BRM cell-based degradation assay (Nano-Glo HiBiT Lytic Detection); settings: HeLa cells expressing HiBiT-BRM, 24 h; for DC50: read-out: BRM HiBit Degradation IC50
T1 construct: expressed in transfected cells
Outline: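 Luminescence from HiBiT–LgBiT complementation in lysates of a stable HiBiT-BRM HeLa line measured after 24 h compound exposure. Degradation expressed as percent relative to DMSO-treated cells and cells given 2 μM of a known BRM/BRG1 degrader.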

[2] = biological target: T2, HiBit-BRG1 (Homo sapiens, UniProt P51532); assay: HiBit-BRG1 cell-based degradation assay (Nano-Glo HiBiT Lytic Detection); settings: HeLa cells expressing HiBit-BRG1 and LgBit, 24 h; for DC50: read-out: BRG1 HiBit Degradation IC50; for Dmax: read-out: BRG1 HiBit Degradation Maximum (%)
T2 construct: expressed in transfected cells
T2 sequence (P51532 whole entry): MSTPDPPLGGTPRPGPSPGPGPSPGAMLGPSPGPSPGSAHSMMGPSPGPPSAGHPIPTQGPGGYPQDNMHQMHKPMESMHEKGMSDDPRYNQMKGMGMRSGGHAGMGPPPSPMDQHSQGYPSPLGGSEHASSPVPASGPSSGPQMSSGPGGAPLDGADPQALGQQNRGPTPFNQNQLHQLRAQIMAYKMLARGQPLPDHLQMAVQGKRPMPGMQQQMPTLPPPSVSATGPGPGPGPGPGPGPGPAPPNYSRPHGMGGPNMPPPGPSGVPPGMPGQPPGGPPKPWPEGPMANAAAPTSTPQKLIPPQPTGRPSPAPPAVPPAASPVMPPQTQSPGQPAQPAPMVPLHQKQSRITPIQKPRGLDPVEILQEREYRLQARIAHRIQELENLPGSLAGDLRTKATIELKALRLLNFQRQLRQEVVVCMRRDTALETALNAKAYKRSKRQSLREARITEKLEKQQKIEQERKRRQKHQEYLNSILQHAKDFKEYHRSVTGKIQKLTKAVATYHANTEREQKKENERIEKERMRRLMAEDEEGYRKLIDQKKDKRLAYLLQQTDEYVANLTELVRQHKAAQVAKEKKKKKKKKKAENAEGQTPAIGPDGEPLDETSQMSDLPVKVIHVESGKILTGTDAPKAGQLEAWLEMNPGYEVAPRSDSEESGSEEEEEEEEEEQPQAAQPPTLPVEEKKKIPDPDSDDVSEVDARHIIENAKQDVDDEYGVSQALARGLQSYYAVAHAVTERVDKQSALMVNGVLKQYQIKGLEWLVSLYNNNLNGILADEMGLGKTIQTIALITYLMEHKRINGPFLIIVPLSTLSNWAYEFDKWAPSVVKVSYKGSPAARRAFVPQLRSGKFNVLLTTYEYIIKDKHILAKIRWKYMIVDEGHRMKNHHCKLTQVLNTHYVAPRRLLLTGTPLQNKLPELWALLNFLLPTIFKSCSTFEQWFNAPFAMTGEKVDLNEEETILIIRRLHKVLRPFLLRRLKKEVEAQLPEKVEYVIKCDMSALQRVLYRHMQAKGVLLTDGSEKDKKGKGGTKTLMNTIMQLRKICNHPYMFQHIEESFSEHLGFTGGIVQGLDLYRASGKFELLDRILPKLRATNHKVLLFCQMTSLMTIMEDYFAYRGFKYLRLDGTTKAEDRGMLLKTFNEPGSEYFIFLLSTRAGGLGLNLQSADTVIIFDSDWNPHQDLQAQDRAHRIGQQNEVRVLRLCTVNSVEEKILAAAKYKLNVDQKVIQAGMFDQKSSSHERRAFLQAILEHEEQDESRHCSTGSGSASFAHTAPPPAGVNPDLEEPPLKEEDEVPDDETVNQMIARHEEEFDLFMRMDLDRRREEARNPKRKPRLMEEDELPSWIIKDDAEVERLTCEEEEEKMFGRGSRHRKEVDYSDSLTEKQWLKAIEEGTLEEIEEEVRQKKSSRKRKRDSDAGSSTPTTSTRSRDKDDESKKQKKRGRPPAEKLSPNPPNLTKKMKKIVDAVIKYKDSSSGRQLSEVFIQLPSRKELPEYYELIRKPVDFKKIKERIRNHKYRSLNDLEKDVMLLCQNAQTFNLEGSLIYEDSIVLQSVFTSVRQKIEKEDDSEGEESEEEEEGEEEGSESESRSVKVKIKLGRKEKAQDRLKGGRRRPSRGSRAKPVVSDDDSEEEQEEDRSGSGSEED
Outline: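 Luminescence from reconstituted NanoBiT luciferase after lytic detection served as read-out of remaining HiBit-BRG1 in stable HeLa cells, which also express LgBit. Cells were seeded at 5000 per well and incubated with compound for 24 h. DMSO and a 2 μM known degrader defined the control range.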

T1 sequence (P51531 whole entry): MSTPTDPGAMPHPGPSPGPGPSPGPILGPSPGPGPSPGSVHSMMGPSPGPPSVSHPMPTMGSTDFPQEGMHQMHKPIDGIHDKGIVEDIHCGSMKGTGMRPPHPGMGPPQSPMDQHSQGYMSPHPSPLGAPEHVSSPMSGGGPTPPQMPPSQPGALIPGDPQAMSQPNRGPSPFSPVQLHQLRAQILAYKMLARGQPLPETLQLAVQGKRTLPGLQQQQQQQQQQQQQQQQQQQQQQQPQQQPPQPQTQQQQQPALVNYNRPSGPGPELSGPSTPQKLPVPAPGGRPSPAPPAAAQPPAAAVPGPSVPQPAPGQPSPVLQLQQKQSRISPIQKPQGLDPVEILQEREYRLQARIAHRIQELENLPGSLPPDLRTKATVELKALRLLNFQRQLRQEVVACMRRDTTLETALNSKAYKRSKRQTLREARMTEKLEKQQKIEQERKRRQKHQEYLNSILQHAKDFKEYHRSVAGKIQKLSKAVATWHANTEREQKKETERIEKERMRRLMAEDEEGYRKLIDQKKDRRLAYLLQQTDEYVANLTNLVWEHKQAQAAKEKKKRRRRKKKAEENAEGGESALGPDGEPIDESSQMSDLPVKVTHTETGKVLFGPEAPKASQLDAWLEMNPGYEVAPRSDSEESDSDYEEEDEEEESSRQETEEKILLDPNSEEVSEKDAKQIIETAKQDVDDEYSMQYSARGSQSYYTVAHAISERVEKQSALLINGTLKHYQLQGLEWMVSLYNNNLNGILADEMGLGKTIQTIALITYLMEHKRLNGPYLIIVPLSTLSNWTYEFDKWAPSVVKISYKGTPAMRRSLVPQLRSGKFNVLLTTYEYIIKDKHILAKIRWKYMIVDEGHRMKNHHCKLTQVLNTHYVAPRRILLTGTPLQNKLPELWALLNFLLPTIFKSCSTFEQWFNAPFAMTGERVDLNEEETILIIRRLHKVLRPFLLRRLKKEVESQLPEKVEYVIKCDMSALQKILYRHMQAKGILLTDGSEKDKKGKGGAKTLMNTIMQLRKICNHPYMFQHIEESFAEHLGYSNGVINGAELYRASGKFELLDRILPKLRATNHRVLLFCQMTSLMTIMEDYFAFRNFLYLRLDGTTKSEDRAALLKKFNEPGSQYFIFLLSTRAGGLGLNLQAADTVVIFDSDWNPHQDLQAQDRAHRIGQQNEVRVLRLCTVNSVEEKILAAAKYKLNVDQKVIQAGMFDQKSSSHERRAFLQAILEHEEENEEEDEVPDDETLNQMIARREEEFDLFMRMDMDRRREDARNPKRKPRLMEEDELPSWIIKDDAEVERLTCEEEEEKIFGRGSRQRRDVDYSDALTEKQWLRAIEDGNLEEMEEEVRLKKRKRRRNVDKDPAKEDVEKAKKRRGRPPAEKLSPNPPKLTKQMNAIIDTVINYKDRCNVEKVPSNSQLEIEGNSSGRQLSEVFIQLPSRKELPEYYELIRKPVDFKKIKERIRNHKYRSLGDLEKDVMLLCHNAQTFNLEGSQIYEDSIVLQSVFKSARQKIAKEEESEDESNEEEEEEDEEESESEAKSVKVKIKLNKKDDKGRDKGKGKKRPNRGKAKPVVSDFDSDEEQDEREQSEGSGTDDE

| Structure (SMILES) | BRM HiBit Degradation Maximum (%) [1] | DC50 [1] [nM] | DC50 [2] [nM] | Dmax [2] [%] |
| --- | --- | --- | --- | --- |
| Cc1ncsc1-c1ccc(CNC(=O)[C@@H]2C[C@@H](O)CN2C(=O)[C@@H](NC(=O)CCCCCCCCCNCc2ccc(CCOc3cc(-c4ccccc4O)nnc3N)cc2)C(C)(C)C)cc1 [Compound 26, (2S,4R)-1-((S)-2-(10-((4-(2-((3-amino-6-(2-hydroxyphenyl)pyridazin-4-yl)oxy)ethyl)benzyl)amino)decanamido)-3,3-dimethylbutanoyl)-4-hydroxy-N-(4-(4-methylthiazol-5-yl)benzyl)pyrrolidine-2-carboxamide] | A (“A” indicates maximum degradation ≥75%) | > 100 | > 1000 | < 50 |
| Cc1ncsc1-c1ccc([C@H](C)NC(=O)[C@@H]2C[C@@H](O)CN2C(=O)[C@@H](NC(=O)CCNCCCCCCCCCCC(=O)NCc2ccc(CCOc3cc(-c4ccccc4O)nnc3N)cc2)C(C)(C)C)cc1 [Compound 256, (2S,4R)-1-((S)-2-(3-((11-((4-(2-((3-amino-6-(2-hydroxyphenyl)pyridazin-4-yl)oxy)ethyl)benzyl)amino)-11-oxoundecyl)amino)propanamido)-3,3-dimethylbutanoyl)-4-hydroxy-N-((S)-1-(4-(4-methylthiazol-5-yl)phenyl)ethyl)pyrrolidine-2-carboxamide] | C (“C” indicates maximum degradation <50%) | > 1000 | > 1000 | < 50 |
| Nc1nnc(-c2ccccc2O)cc1OCCc1ccc(C(=O)NCCOCCOCCNc2cccc3c2C(=O)N(C2CCC(=O)NC2=O)C3=O)cc1 (centres unmarked) [Compound 43, 4-(2-[[3-amino-6-(2-hydroxyphenyl)pyridazin-4-yl]oxy]ethyl)-N-[2-[2-(2-[[2-(2,6-dioxopiperidin-3-yl)-1,3-dioxoisoindol-4-yl]amino]ethoxy)ethoxy]ethyl]benzamide] | C (“C” indicates maximum degradation <50%) | > 1000 | > 1000 | < 50 |
| Nc1nnc(-c2ccccc2O)cc1OCCc1ccc(CNCCOc2cccc3c2C(=O)N(C2CCC(=O)NC2=O)C3=O)cc1 (centres unmarked) [Compound 115, 4-[2-([[4-(2-[[3-amino-6-(2-hydroxyphenyl)pyridazin-4-yl]oxy]ethyl)phenyl]methyl]amino)ethoxy]-2-(2,6-dioxopiperidin-3-yl)isoindole-1,3-dione] | C (“C” indicates maximum degradation <50%) | > 1000 | > 1000 | < 50 |
| CN(CCCCCNc1ccc2c(c1)C(=O)N(C1CCC(=O)NC1=O)C2=O)Cc1ccc(CCOc2cc(-c3ccccc3O)nnc2N)cc1 (centres unmarked) [Compound 151, 5-[[5-([[4-(2-[[3-amino-6-(2-hydroxyphenyl)pyridazin-4-yl]oxy]ethyl)phenyl]methyl](methyl)amino)pentyl]amino]-2-(2,6-dioxopiperidin-3-yl)isoindole-1,3-dione] | C (“C” indicates maximum degradation <50%) | > 1000 | > 1000 | > 50 |
| Cc1ncsc1-c1ccc([C@H](C)NC(=O)[C@@H]2C[C@@H](O)CN2C(=O)[C@@H](c2cc(OCCN3C[C@H]4CC[C@@H](C3)N4C(=O)c3ccc(CCOc4cc(-c5ccccc5O)nnc4N)cc3)no2)C(C)C)cc1 [Compound 220, (2S,4R)-1-((2R)-2-(3-(2-(8-(4-(2-((3-amino-6-(2-hydroxyphenyl)pyridazin-4-yl)oxy)ethyl)benzoyl)-3,8-diazabicyclo[3.2.1]octan-3-yl)ethoxy)isoxazol-5-yl)-3-methylbutanoyl)-4-hydroxy-N-((S)-1-(4-(4-methylthiazol-5-yl)phenyl)ethyl)pyrrolidine-2-carboxamide] | A (“A” indicates maximum degradation ≥75%) | < 10 | > 10 | > 75 |
| Cc1ncsc1-c1ccc([C@H](C)NC(=O)[C@@H]2C[C@@H](O)CN2C(=O)[C@@H](c2cc(OCCN3CCC(C(=O)NCc4ccc(CCOc5cc(-c6ccccc6O)nnc5N)cc4)CC3)no2)C(C)C)cc1 [Compound 176, N-(4-(2-((3-amino-6-(2-hydroxyphenyl)pyridazin-4-yl)oxy)ethyl)benzyl)-1-(2-((5-((R)-1-((2S,4R)-4-hydroxy-2-(((S)-1-(4-(4-methylthiazol-5-yl)phenyl)ethyl)carbamoyl)pyrrolidin-1-yl)-3-methyl-1-oxobutan-2-yl)isoxazol-3-yl)oxy)ethyl)piperidine-4-carboxamide] | A (“A” indicates maximum degradation ≥75%) | > 10 | > 100 | > 75 |
| Cc1ncsc1-c1ccc(CNC(=O)[C@@H]2C[C@@H](O)CN2C(=O)[C@@H](NC(=O)CCCCCCCCC(=O)NCc2ccc(CCOc3cc(-c4ccccc4O)nnc3N)cc2)C(C)(C)C)cc1 [Compound 138, N1-(4-(2-((3-amino-6-(2-hydroxyphenyl)pyridazin-4-yl)oxy)ethyl)benzyl)-N10-((S)-1-((2S,4R)-4-hydroxy-2-((4-(4-methylthiazol-5-yl)benzyl)carbamoyl)pyrrolidin-1-yl)-3,3-dimethyl-1-oxobutan-2-yl)decanediamide] | A (“A” indicates maximum degradation ≥75%) | > 100 | > 1000 | < 50 |
| Cc1ncsc1-c1ccc([C@H](C)NC(=O)[C@@H]2C[C@@H](O)CN2C(=O)[C@@H](c2cc(OCCN3CC4(C3)CN(C(=O)c3ccc(CCOc5cc(-c6ccccc6O)nnc5N)cc3)C4)no2)C(C)C)cc1 [Compound 208, (2S,4R)-1-[(2R)-2-[3-(2-[6-[4-(2-[[3-amino-6-(2-hydroxyphenyl)pyridazin-4-yl]oxy]ethyl)benzoyl]-2,6-diazaspiro[3.3]heptan-2-yl]ethoxy)-1,2-oxazol-5-yl]-3-methylbutanoyl]-4-hydroxy-N-[(1S)-1-[4-(4-methyl-1,3-thiazol-5-yl)phenyl]ethyl]pyrrolidine-2-carboxamide] | A (“A” indicates maximum degradation ≥75%) | > 10 | > 100 | > 75 |
| Cc1ncsc1-c1ccc([C@H](C)NC(=O)[C@@H]2C[C@@H](O)CN2C(=O)[C@@H](c2cc(OCCN3CC4(C3)CN(CC(=O)NCc3ccc(CCOc5cc(-c6ccccc6O)nnc5N)cc3)C4)no2)C(C)C)cc1 [Compound 191, (2S,4R)-1-[(2R)-2-[3-(2-[6-[([[4-(2-[[3-amino-6-(2-hydroxyphenyl)pyridazin-4-yl]oxy]ethyl)phenyl]methyl]carbamoyl)methyl]-2,6-diazaspiro[3.3]heptan-2-yl]ethoxy)-1,2-oxazol-5-yl]-3-methylbutanoyl]-4-hydroxy-N-[(1S)-1-[4-(4-methyl-1,3-thiazol-5-yl)phenyl]ethyl]pyrrolidine-2-carboxamide] | A (“A” indicates maximum degradation ≥75%) | > 100 | > 1000 | > 75 |
| Cc1ncsc1-c1ccc([C@H](C)NC(=O)[C@@H]2C[C@@H](O)CN2C(=O)[C@@H](c2cc(OCCN3CC(CC(=O)NCc4ccc(CCOc5cc(-c6ccccc6O)nnc5N)cc4)C3)no2)C(C)C)cc1 [Compound 193, (2S,4R)-1-[2-[3-(2-[3-[([[4-(2-[[3-amino-6-(2-hydroxyphenyl)pyridazin-4-yl]oxy]ethyl)phenyl]methyl]carbamoyl)methyl]azetidin-1-yl]ethoxy)-1,2-oxazol-5-yl]-3-methylbutanoyl]-4-hydroxy-N-[(1S)-1-[4-(4-methyl-1,3-thiazol-5-yl)phenyl]ethyl]pyrrolidine-2-carboxamide] | B (“B” indicates maximum degradation ≥50%) | > 100 | > 1000 | < 50 |
| Cc1ncsc1-c1ccc(CNC(=O)[C@@H]2C[C@@H](O)CN2C(=O)[C@@H](NC(=O)CCCC(=O)NCc2ccc(CCOc3cc(-c4ccccc4O)nnc3N)cc2)C(C)(C)C)cc1 [Compound 34] | B (“B” indicates maximum degradation ≥50%) | > 1000 | > 1000 | < 50 |
| Cc1ncsc1-c1ccc([C@H](C)NC(=O)[C@@H]2C[C@@H](O)CN2C(=O)[C@@H](c2cc(OCCNCCCCCCCCCCC(=O)NCc3ccc(CCOc4cc(-c5ccccc5O)nnc4N)cc3)no2)C(C)C)cc1 [Compound 212, (2S,4R)-1-[(2R)-2-[3-(2-[[10-([[4-(2-[[3-amino-6-(2-hydroxyphenyl)pyridazin-4-yl]oxy]ethyl)phenyl]methyl]carbamoyl)decyl]amino]ethoxy)-1,2-oxazol-5-yl]-3-methylbutanoyl]-4-hydroxy-N-[(1S)-1-[4-(4-methyl-1,3-thiazol-5-yl)phenyl]ethyl]pyrrolidine-2-carboxamide] | A (“A” indicates maximum degradation ≥75%) | > 10 | > 1000 | < 50 |
| Cc1ncsc1-c1ccc(CNC(=O)[C@@H]2C[C@@H](O)CN2C(=O)[C@@H](NC(=O)CCN2CC(CC(=O)NCc3ccc(CCOc4cc(-c5ccccc5O)nnc4N)cc3)C2)C(C)(C)C)cc1 [Compound 183, (2S,4R)-1-[(2S)-2-(3-[3-[([[4-(2-[[3-amino-6-(2-hydroxyphenyl)pyridazin-4-yl]oxy]ethyl)phenyl]methyl]carbamoyl)methyl]azetidin-1-yl]propanamido)-3,3-dimethylbutanoyl]-4-hydroxy-N-[[4-(4-methyl-1,3-thiazol-5-yl)phenyl]methyl]pyrrolidine-2-carboxamide] | C (“C” indicates maximum degradation <50%) | > 1000 | > 1000 | < 50 |

Reference: US20230150974A1 (Foghorn Therapeutics Inc., priority 2020, published 2023)
